Among the data in patent US20250257064A1, “TRIFLUOROMETHYL-SUBSTITUTED SULFONAMIDE AS BCL-2-SELECTIVE INHIBITOR” (Chia Tai Tianqing Pharmaceutical Group Co., Ltd., priority 2018, published 2025) are IC50 values, retold here.

The target in one experiment is T1, BCL-2/BAK (Homo sapiens, UniProt P10415).
T1 construct: purchased Cisbio
Briefly: Screening on inhibitory activity for BCL-2/BAK binding (Cisbio HTRF kit). How it is done:
1.1 Screening on Inhibitory Activity for BCL-2/BAK Binding
500 nM Tag1-BCL-2 protein stock solution and 20 μM Tag2-BAK protein stock solution were diluted to 5 nM and 120 nM respectively with dilution buffer in kit (model: BCL-2/BAK (BH3) BINDING ASSAY KITS, from Cisbio). 5 μL of Tag1-BCL-2 protein diluent was added to each well, then different compounds dissolved with DMSO were added to the wells with a nanoliter pipettor, allowing the final compound concentrations to be 200 nM to 0.0488 nM (4-fold gradient for 7 concentrations in total). Blank control wells (without enzyme) and negative control wells (with enzyme, plus vehicle DMSO) were set, and 2 replicate wells were set. Finally, 5 μL of Tag2-BAK protein diluent was added to each well, and the mixture was mixed well by centrifugation and incubated at 25° C. for 15 min. 100× anti-Tag1-Eu^3+ and 100× anti-Tag2-XL665 were both diluted to 1× working concentration with the detection buffer in the kit. Anti-Tag1-Eu^3+ and anti-Tag2-XL665 were mixed well in a 1:1 ratio, and the mixture was added to wells at 5 μL/well, and incubated at 25° C. for 2 h or more. The plate was read using a PE Envision multi-functional microplate reader (excitation: […], emission: 665 nm) and IC50 (shown in table 1) was calculated by four-parameter fitting.
(TR-FRET usually uses a lanthanide donor and a delayed reading to cut background.)

The next experiment deals with RS4;11 cells. In words: Inhibitory effect on proliferation of RS4;11 cells (CCK-8). In kind it is cell-based, human. To be noted: Homo sapiens, RS4-11, 72 h. How it is done: Experimental Example 2: Inhibitory Effect of Compounds on Proliferation of RS4;11 Cells
RS4;11 cells (from Nanjing Cobioer) in logarithmic growth phase and good cell condition were added to a centrifuge tube and centrifuged at 1500 rpm for 3 min in a low speed centrifuge. The supernatant was discarded, and 5 mL of complete medium (RPMI basic medium+10 wt % fetal bovine serum (FBS)) was added using a pipette for cell resuspension. The cells were counted using a cell counter, diluted with complete medium to a cell density of 2×10^5 cells/mL, and added with an equivalent amount of RPMI basic medium to adjust the serum concentration to 5% and the cell density to 1×10^5 cells/mL for plate seeding. The cells were seeded on a 96-well plate at 100 μL/well using a pipettor, and incubated in an incubator at 37° C., 5% CO2 with saturated humidity. After 24 h of incubation, compounds were loaded using a nanoliter pipettor, 2 duplicate wells were set for each concentration, and cells without compound were used as negative controls. […] Inhibition rate (%)=(mean value of negative control group—mean value of experimental group)/(mean value of negative control group—mean value of blank group)×100%. A dose-response curve was fitted by four-parameter analysis, with the logarithm of compound concentration serving as abscissa and inhibition rate serving as ordinate, so that IC50 was calculated (FIG. 2).

In another experiment the target is T2, BCL-XL/BAK (Homo sapiens, UniProt Q07817).
T2 construct: purchased Cisbio
T2 sequence (Q07817 whole entry, species assumed): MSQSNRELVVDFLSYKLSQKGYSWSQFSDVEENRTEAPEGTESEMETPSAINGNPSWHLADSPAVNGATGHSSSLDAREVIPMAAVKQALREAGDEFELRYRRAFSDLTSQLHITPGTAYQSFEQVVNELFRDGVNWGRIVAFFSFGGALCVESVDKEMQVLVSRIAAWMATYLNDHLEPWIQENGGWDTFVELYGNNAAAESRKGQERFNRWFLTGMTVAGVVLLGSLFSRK
In words: Screening on inhibitory activity for BCL-XL/BAK binding (Cisbio HTRF kit). On the procedure: 1.2 Screening on Inhibitory Activity for BCL-XL/BAK Binding
300 nM Tag1-BCL-XL protein stock solution and 10 μM Tag2-BAK protein stock solution were diluted to 2 nM and 80 nM respectively with dilution buffer in kit (model: BCL-XL/BAK (BH3) BINDING ASSAY KITS, from Cisbio). 5 μL of Tag1-BCL-XL protein diluent was added to each well, then different compounds dissolved with DMSO were added to the wells with a nanoliter pipettor, allowing the final compound concentrations to be 2000 nM to 0.488 nM (4-fold gradient for 7 concentrations in total). Blank control wells (without enzyme) and negative control wells (with enzyme, plus vehicle DMSO) were set, and 2 replicate wells were set. Finally, 5 μL of Tag2-BAK protein diluent was added to each well, and the mixture was mixed well by centrifugation and incubated at 25° C. for 15 min. 100× anti-Tag1-Eu^3+ and 100× anti-Tag2-XL665 were both diluted to 1× working concentration with the detection buffer in the kit. Anti-Tag1-Eu^3+ and anti-Tag2-XL665 were mixed well in a 1:1 ratio, and the mixture was added to wells at 5 µL/well, and incubated at 25° C. for 2 h or more. The plate was read using a PE Envision multi-functional microplate reader (excitation: […], emission: 665 nm) and IC50 (shown in table 1) was calculated by four-parameter fitting.

A word on the IC50: it is the concentration at which inhibition is half-maximal.

T1 sequence (P10415 whole entry, species assumed): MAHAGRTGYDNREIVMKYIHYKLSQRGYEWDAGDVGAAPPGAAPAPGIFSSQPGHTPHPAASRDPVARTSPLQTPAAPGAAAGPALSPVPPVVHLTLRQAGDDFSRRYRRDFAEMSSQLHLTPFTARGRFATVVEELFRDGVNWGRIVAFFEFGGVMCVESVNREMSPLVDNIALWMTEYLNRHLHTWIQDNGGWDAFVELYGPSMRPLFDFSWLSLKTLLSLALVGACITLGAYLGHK

With `CC1(C)CCC(CN2CCN(c3ccc(C(=O)NS(=O)(=O)c4ccc(NCC5CN(C(=O)CC#N)CCO5)c([N+](=O)[O-])c4)c(Oc4cnc5[nH]ccc5c4)c3)CC2)=C(c2ccc(C(F)(F)F)cc2Cl)C1` (centres unmarked) [Compound 51-1, 4-(4-{[2-(2-chloro-4-trifluoromethylphenyl)-4,4-dimethylcyclohex-1-enyl]methyl}-piperazin-1-yl)-N-({3-nitro-4-[((4-(2-cyanoacetyl)morpholin-2-yl)methyl)amino]phenyl}sulfonyl)-2-(1H-pyrrolo[2,3-b]pyridin-5-yloxy)-benzamide], the values for the IC50 at BCL-2/BAK and with RS4;11 cells were 1.9 nM and 1.1 nM, respectively.

`CN(C)CC(=O)N1CCC(CNc2ccc(S(=O)(=O)NC(=O)c3ccc(N4CCN(CC5=C(c6ccc(C(F)(F)F)cc6Cl)CC(C)(C)CC5)CC4)cc3Oc3cnc4[nH]ccc4c3)cc2[N+](=O)[O-])CC1` [Compound 59-1]: the IC50 on BCL-2/BAK worked out at 1.1 nM; in the experiment on RS4;11 cells, 1 nM.

On to `CCN1CCOCC1CNc1ccc(S(=O)(=O)NC(=O)c2ccc(N3CCN(CC4=C(c5ccc(C(F)(F)F)cc5Cl)CC(C)(C)CC4)CC3)cc2Oc2cnc3[nH]ccc3c2)cc1[N+](=O)[O-]` (centres unmarked) [Compound 24-1, 4-(4-{[2-(2-chloro-4-trifluoromethylphenyl)-4,4-dimethylcyclohex-1-enyl]methyl}-piperazin-1-yl)-N-({3-nitro-4-[((4-ethylmorpholin-3-yl)methyl)amino]phenyl}sulfonyl)-2-(1H-pyrrolo[2,3-b]pyridin-5-yloxy)-benzamide], for which the IC50 at BCL-2/BAK amounted to 5.11 nM; at BCL-XL/BAK, 556 nM.

Regarding `CC1(C)CCC(CN2CCN(c3ccc(C(=O)NS(=O)(=O)c4ccc(NCC5CCOCC5)c([N+](=O)[O-])c4)c(Oc4cnc5[nH]ccc5c4)c3)CC2)=C(c2ccc(Cl)cc2C(F)(F)F)C1` [Compound 3-1, 4-(4-{[2-(4-chloro-2-trifluoromethylphenyl)-4,4-dimethylcyclohex-1-enyl]methyl}-piperazin-1-yl)-N-({3-nitro-4-[(tetrahydro-2H-pyran-4-ylmethyl)amino]phenyl}sulfonyl)-2-(1H-pyrrolo[2,3-b]pyridin-5-yloxy)-benzamide], the IC50 on BCL-2/BAK was 0.86 nM; on BCL-XL/BAK, > 2000 nM.

With “4-(4-{[2-(2-chloro-4-trifluoromethylphenyl)-4,4-dimethylcyclohex-1-enyl]methyl}-piperazin-1-yl)-N-({3-nitro-4-[(4-((trifluoromethyl) sulfonyl)morpholin-2-yl)methyl)amino]phenyl}sulfonyl)-2-(1H-pyrrolo[2,3-b]pyridin-5-yloxy)-benzamide [Compound 56-1]”, the IC50 at BCL-2/BAK was 3.55 nM; at BCL-XL/BAK, 381 nM.

`CC1(C)CCC(CN2CCN(c3ccc(C(=O)NS(=O)(=O)c4ccc(NCCC5CCCOC5)c([N+](=O)[O-])c4)c(Oc4cnc5[nH]ccc5c4)c3)CC2)=C(c2ccc(C(F)(F)F)cc2Cl)C1` (centres unmarked) [Compound 45-1, 4-(4-{[2-(2-chloro-4-trifluoromethylphenyl)-4,4-dimethylcyclohex-1-enyl]methyl}-piperazin-1-yl)-N-({3-nitro-4-[((2-tetrahydropyran-3-yl)ethyl)amino]phenyl}sulfonyl)-2-(1H-pyrrolo[2,3-b]pyridin-5-yloxy)-benzamide]: the IC50 on BCL-2/BAK was found to be 2.18 nM; on BCL-XL/BAK, 243 nM.

For `CN(C)CC(=O)N1CCCC(CNc2ccc(S(=O)(=O)NC(=O)c3ccc(N4CCN(CC5=C(c6ccc(C(F)(F)F)cc6Cl)CC(C)(C)CC5)CC4)cc3Oc3cnc4[nH]ccc4c3)cc2[N+](=O)[O-])C1` (centres unmarked) [Compound 60-1], the IC50 came to 1.1 nM at BCL-2/BAK and 1.3 nM with RS4;11 cells.

Turning to `CC1(C)CCC(CN2CCN(c3ccc(C(=O)NS(=O)(=O)c4ccc(NCCC5CN(S(C)(=O)=O)CCO5)c([N+](=O)[O-])c4)c(Oc4cnc5[nH]ccc5c4)c3)CC2)=C(c2ccc(C(F)(F)F)cc2Cl)C1` (centres unmarked) [Compound 21-1, 4-(4-{[2-(2-chloro-4-trifluoromethylphenyl)-4,4-dimethylcyclohex-1-enyl]methyl}-piperazin-1-yl)-N-({3-nitro-4-[(2-(4-(methylsulfonyl)morpholin-2-yl)ethyl)amino]phenyl}sulfonyl)-2-(1H-pyrrolo[2,3-b]pyridin-5-yloxy)-benzamide], the results for the IC50 at BCL-2/BAK and in the experiment with RS4;11 cells were 2.4 nM and 4.1 nM, respectively.

In the case of `CC1(C)CCC(CN2CCN(c3ccc(C(=O)NS(=O)(=O)c4ccc(NC[C@@H]5CCCO5)c([N+](=O)[O-])c4)c(Oc4cnc5[nH]ccc5c4)c3)CC2)=C(c2ccc(C(F)(F)F)cc2Cl)C1` [Compound 37-1, (S)-4-(4-{[2-(2-chloro-4-trifluoromethylphenyl)-4,4-dimethylcyclohex-1-enyl]methyl}-piperazin-1-yl)-N-({3-nitro-4-[((tetrahydrofuran-2-yl)methyl)amino]phenyl}sulfonyl)-2-(1H-pyrrolo[2,3-b]pyridin-5-yloxy)-benzamide], the figures for the IC50 at BCL-2/BAK and at BCL-XL/BAK were 1.59 nM and 142 nM, respectively.

With `CC(=O)N1CCO[C@@H](CNc2ccc(S(=O)(=O)NC(=O)c3ccc(N4CCN(CC5=C(c6ccc(C(F)(F)F)cc6Cl)CC(C)(C)CC5)CC4)cc3Oc3cnc4[nH]ccc4c3)cc2[N+](=O)[O-])C1` [Compound 61-1, (S)-4-(4-{[2-(2-chloro-4-trifluoromethylphenyl)-4,4-dimethylcyclohex-1-enyl]methyl}-piperazin-1-yl)-N-({3-nitro-4-[((4-acetylmorpholin-2-yl)methyl)amino]phenyl}sulfonyl)-2-(1H-pyrrolo[2,3-b]pyridin-5-yloxy)-benzamide], the IC50 on BCL-2/BAK was found to be 1.52 nM; in the experiment on RS4;11 cells, 3.2 nM.

As to `CC1(C)CCC(CN2CCN(c3ccc(C(=O)NS(=O)(=O)c4ccc(NC[C@@H]5CCOC5)c([N+](=O)[O-])c4)c(Oc4cnc5[nH]ccc5c4)c3)CC2)=C(c2ccc(C(F)(F)F)cc2Cl)C1` [Compound 36-1, (S)-4-(4-{[2-(2-chloro-4-trifluoromethylphenyl)-4,4-dimethylcyclohex-1-enyl]methyl}-piperazin-1-yl)-N-({3-nitro-4-[((tetrahydrofuran-3-yl)methyl)amino]phenyl}sulfonyl)-2-(1H-pyrrolo[2,3-b]pyridin-5-yloxy)-benzamide], the IC50 is 1.78 nM on BCL-2/BAK and 157 nM on BCL-XL/BAK.

Take `COCC(=O)N1CCOC(CCNc2ccc(S(=O)(=O)NC(=O)c3ccc(N4CCN(CC5=C(c6ccc(C(F)(F)F)cc6Cl)CC(C)(C)CC5)CC4)cc3Oc3cnc4[nH]ccc4c3)cc2[N+](=O)[O-])C1` (centres unmarked) [Compound 72-1, 4-(4-{[2-(2-chloro-4-trifluoromethylphenyl)-4,4-dimethylcyclohex-1-enyl]methyl}-piperazin-1-yl)-N-({3-nitro-4-[(2-(4-(2-methoxyacetyl)morpholin-2-yl)ethyl)amino]phenyl}sulfonyl)-2-(1H-pyrrolo[2,3-b]pyridin-5-yloxy)-benzamide]: the results for the IC50 on BCL-2/BAK and at BCL-XL/BAK were 2.32 nM and 122 nM, respectively.

As for `CC1(C)CCC(CN2CCN(c3ccc(C(=O)NS(=O)(=O)c4ccc(NCC5CCOCC5)c([N+](=O)[O-])c4)c(Oc4cnc5[nH]ccc5c4)c3)CC2)=C(c2ccc(C(F)(F)F)c(Cl)c2)C1` [Compound 4-1, 4-(4-{[2-(3-chloro-4-trifluoromethylphenyl)-4,4-dimethylcyclohex-1-enyl]methyl}-piperazin-1-yl)-N-({3-nitro-4-[(tetrahydro-2H-pyran-4-ylmethyl)amino]phenyl}sulfonyl)-2-(1H-pyrrolo[2,3-b]pyridin-5-yloxy)-benzamide], the figures for the IC50 at BCL-2/BAK and at BCL-XL/BAK were 0.8 nM and > 2000 nM, respectively.
